Experiment: xn = mol fraction of the nth substance listed
Conditions: 81.5 kPa

CCCC[n+]1ccn(C)c1.N#C[S-] + CCCCC(C)O
x1 = 1
Conditions	speed of sound [m/s]
298.15 K	1762
308.15 K	1738
318.15 K	1714
328.15 K	1691
338.15 K	1668

CCCCC(C)O (configuration not stated) + CCCC[n+]1ccn(C)c1.N#C[S-]
speed of sound [m/s]
Conditions	x2 = 0	x2 = 0.1011	x2 = 0.2003	x2 = 0.2992	x2 = 0.3988	x2 = 0.4964	x2 = 0.6029	x2 = 0.6993	x2 = 0.7996	x2 = 0.8987
288.15 K	1299	–	1397	1448	1497	1549	1601	1653	–	1748
298.15 K	–	1316	1366	–	1469	1521	1574	1628	1673	1724
308.15 K	1226	1283	1335	1389	1441	1494	1549	1603	–	1700
318.15 K	1189	–	1304	–	–	1471	1530	1581	1632	1676
328.15 K	1153	–	–	1331	1385	1441	1498	1554	1601	1653
338.15 K	1117	1183	–	1302	1357	–	1474	–	1577	1630
